Test results taken from patent US11014941B2, “Pyrrolopyrimidine derivatives useful as inhibitors of influenza virus replication” (priority 2017, dated 2021).

These compounds were tested against Influenza PB2 (Influenza A virus, UniProt P03428) (assay: biochemical). Settings: read-out: Influenza PB2 affinity, IC50.
Format: binding

Chain of Influenza PB2 (P03428 whole entry, looked up): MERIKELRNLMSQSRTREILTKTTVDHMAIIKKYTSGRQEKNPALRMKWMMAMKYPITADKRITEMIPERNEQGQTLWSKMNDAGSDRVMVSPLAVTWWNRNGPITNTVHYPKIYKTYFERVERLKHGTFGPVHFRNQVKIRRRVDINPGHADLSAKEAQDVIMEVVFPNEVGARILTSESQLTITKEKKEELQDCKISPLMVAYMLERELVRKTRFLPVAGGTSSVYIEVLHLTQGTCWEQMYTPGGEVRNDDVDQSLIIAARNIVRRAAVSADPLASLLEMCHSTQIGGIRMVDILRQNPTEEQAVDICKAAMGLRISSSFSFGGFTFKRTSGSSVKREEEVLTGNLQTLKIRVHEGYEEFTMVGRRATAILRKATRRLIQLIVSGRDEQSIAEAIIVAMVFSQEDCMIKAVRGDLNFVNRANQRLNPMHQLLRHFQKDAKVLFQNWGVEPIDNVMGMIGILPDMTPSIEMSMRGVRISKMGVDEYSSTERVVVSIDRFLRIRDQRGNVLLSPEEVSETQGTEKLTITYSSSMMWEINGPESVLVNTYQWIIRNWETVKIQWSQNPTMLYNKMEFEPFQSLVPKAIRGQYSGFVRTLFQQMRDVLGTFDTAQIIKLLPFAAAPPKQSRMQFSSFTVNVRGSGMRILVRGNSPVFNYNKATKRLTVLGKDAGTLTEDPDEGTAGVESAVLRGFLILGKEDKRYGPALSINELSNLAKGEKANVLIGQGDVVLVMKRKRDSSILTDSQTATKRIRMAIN

Row | Compound | IC50 [µM]
1 | CCCCCOCCOCCNC(=O)N[C@H]1CCC[C@@H](n2ccc3cnc(-c4c[nH]c5ncc(F)cc45)nc32)C1 [Compound B36] | > 100
2 | CCOCCOCCCCCNC(=O)N1CCC[C@H](n2ccc3cnc(-c4c[nH]c5ncc(F)cc45)nc32)C1 [Compound B37] | > 100
3 | CCOCCCCCOCCNC(=O)N[C@@H]1CCC[C@H](n2ccc3cnc(-c4c[nH]c5ncc(F)cc45)nc32)C1 [Compound B38] | > 100
4 | CCCCCOCCOCC(=O)N[C@@H]1CCC[C@H](n2ccc3cnc(-c4c[nH]c5ncc(F)cc45)nc32)C1 [Compound B39] | 10 to 100
5 | CCOCCOCCCCCNC(=O)N[C@@H]1CCC[C@H](n2ccc3cnc(-c4c[nH]c5ncc(F)cc45)nc32)C1 [Compound B40] | > 100
6 | CCOCCCCCOCCN(C)C(=O)N[C@@H]1CCC[C@H](n2ccc3cnc(-c4c[nH]c5ncc(F)cc45)nc32)C1 [Compound B41] | 10 to 100
7 | CCCCCOCCOCCN(C)C(=O)N[C@@H]1CCC[C@H](n2ccc3cnc(-c4c[nH]c5ncc(F)cc45)nc32)C1 [Compound B42] | > 100
8 | CCCCCOCCCCCN(C)C(=O)N[C@@H]1CCC[C@H](n2ccc3cnc(-c4c[nH]c5ncc(F)cc45)nc32)C1 [Compound B44] | > 100
9 | CCOCCOCCCCCN(C)C(=O)N[C@@H]1CCC[C@H](n2ccc3cnc(-c4c[nH]c5ncc(F)cc45)nc32)C1 [Compound B45] | 10 to 100
10 | CCOCCOCCOCCNC(=O)[C@H]1CCC[C@@H](n2ccc3cnc(-c4c[nH]c5ncc(F)cc45)nc32)C1 [Compound B46] | 10 to 100
11 | CCOCCOCCOCCNC(=O)[C@H]1CCC[C@H](n2ccc3cnc(-c4c[nH]c5ncc(F)cc45)nc32)C1 [Compound B47] | > 100
12 | O=C(O)[C@@H]1CCC[C@H](n2ccc3cnc(-c4c[nH]c5ncc(F)cc45)nc32)C1 [Compound B48] | 1 to 10
13 | CCCCCOCCCCCNC(=O)N[C@H]1CCC[C@@H](n2ccc3cnc(-c4c[nH]c5ncc(F)cc45)nc32)C1 [Compound B49] | > 100
14 | CCCCCOCCCCC(=O)N[C@H]1CCC[C@@H](n2ccc3cnc(-c4c[nH]c5ncc(F)cc45)nc32)C1 [Compound B50] | > 100
15 | CCOC(=O)C1=C(N2CCc3cnc(-c4c[nH]c5ncc(F)cc45)nc32)CCCC1 [Compound B51] | > 100
16 | CCOCCOCCCCC(=O)N[C@H]1CCC[C@@H](n2ccc3cnc(-c4c[nH]c5ncc(F)cc45)nc32)C1 [Compound B52] | > 100
17 | O=C(O)C1=C(N2CCc3cnc(-c4c[nH]c5ncc(F)cc45)nc32)CCCC1 [Compound B53] | 1 to 10
18 | CC(=O)N1CCCC(Cn2cc(F)c3cnc(-c4c[nH]c5ncc(F)cc45)nc32)C1 (stereo not drawn) [Compound B54] | 1 to 10
19 | Fc1cnc2[nH]cc(-c3ncc4c(F)cn(CC5CCNCC5)c4n3)c2c1 [Compound B55] | > 100
20 | CN(C)C(=O)N[C@@H]1CCC[C@H](n2ccc3cnc(-c4c[nH]c5ncc(F)cc45)nc32)C1 [Compound B56] | 10 to 100
21 | CNC(=O)NC1CCCC(n2ccc3cnc(-c4c[nH]c5ncc(F)cc45)nc32)C1 (stereo not drawn) [Compound B57] | 10 to 100
22 | CC(=O)N1CCC(Cn2cc(F)c3cnc(-c4c[nH]c5ncc(F)cc45)nc32)CC1 [Compound B58] | 10 to 100
23 | CN(C)C(=O)N[C@H]1CCC[C@H](n2ccc3cnc(-c4c[nH]c5ncc(F)cc45)nc32)C1 [Compound B59] | 10 to 100
24 | Fc1cnc2[nH]cc(-c3ncc4c(F)cn(CC5CCCNC5)c4n3)c2c1 (stereo not drawn) [Compound B60] | 10 to 100

Row | Compound | IC50 [µM]
25 | CNC(=O)N1CCCC(Cn2cc(F)c3cnc(-c4c[nH]c5ncc(F)cc45)nc32)C1 (stereo not drawn) [Compound B61] | 1 to 10
26 | CNC(=O)N1CCC(Cn2cc(F)c3cnc(-c4c[nH]c5ncc(F)cc45)nc32)CC1 [Compound B62] | > 100
27 | CN(C)C(=O)N1CCC(Cn2cc(F)c3cnc(-c4c[nH]c5ncc(F)cc45)nc32)CC1 [Compound B63] | 10 to 100
28 | CNC(=O)N[C@@H]1CCC[C@@H](n2ccc3cnc(-c4c[nH]c5ncc(F)cc45)nc32)C1 [Compound B65] | 1 to 10
29 | COC(=O)[C@]1(C)CCCC[C@H]1n1cc(Cl)c2cnc(-c3c[nH]c4ncc(F)cc34)nc21 [Compound B66] | 10 to 100
30 | COC(=O)[C@@]1(C)CCCC[C@@H]1n1ccc2cnc(-c3c[nH]c4ncc(F)cc34)nc21 [Compound B67] | 10 to 100
31 | CNC(=O)N[C@H]1CC[C@@H](n2ccc3cnc(-c4c[nH]c5ncc(F)cc45)nc32)CC1 [Compound B68] | 1 to 10
32 | N[C@H]1CC[C@@H](n2ccc3cnc(-c4c[nH]c5ncc(F)cc45)nc32)CC1 [Compound B69] | 10 to 100
33 | CN(C)C(=O)N[C@H]1CC[C@@H](n2ccc3cnc(-c4c[nH]c5ncc(F)cc45)nc32)CC1 [Compound B70] | 10 to 100
34 | C[C@]1(C(=O)O)CCCC[C@@H]1n1ccc2cnc(-c3c[nH]c4ncc(F)cc34)nc21 [Compound B71] | < 1
35 | C[C@@]1(C(=O)O)CCCC[C@H]1n1cc(Cl)c2cnc(-c3c[nH]c4ncc(F)cc34)nc21 [Compound B72] | < 1
36 | COC(=O)[C@]1(C)CCCC[C@H]1n1cc(C(F)(F)F)c2cnc(-c3c[nH]c4ncc(F)cc34)nc21 [Compound B73] | 10 to 100
37 | C[C@@]1(C(=O)O)CCCC[C@H]1n1cc(C(F)(F)F)c2cnc(-c3c[nH]c4ncc(F)cc34)nc21 [Compound B74] | < 1
38 | CN(C)C(=O)N1CCCC(Cn2cc(F)c3cnc(-c4c[nH]c5ncc(F)cc45)nc32)C1 (stereo not drawn) [Compound B75] | 10 to 100
39 | Fc1cnc2[nH]cc(-c3ncc4c(F)cn(CC5CCCCN5)c4n3)c2c1 (stereo not drawn) [Compound B76] | 10 to 100
40 | CNC(=O)n1cc(-c2ncc3c(F)cn(CC4CCCCN4)c3n2)c2cc(F)cnc21 (stereo not drawn) [Compound B77] | 10 to 100
41 | CC(C)(C)OC(=O)N1CCC(Cn2cc(F)c3cnc(-c4c[nH]c5ncc(F)cc45)nc32)CC1 [Compound B78] | > 100
42 | CNC(=O)N[C@H]1CC[C@H](n2ccc3cnc(-c4c[nH]c5ncc(F)cc45)nc32)CC1 [Compound B79] | > 100
43 | CN(C)C(=O)N[C@H]1CC[C@H](n2ccc3cnc(-c4c[nH]c5ncc(F)cc45)nc32)CC1 [Compound B80] | > 100
44 | COC(=O)[C@@]1(C)CCCC[C@H]1n1cc(Cl)c2cnc(-c3c[nH]c4ncc(F)cc34)nc21 [Compound B81] | > 100
45 | CNC(=O)[C@]1(C)CCCC[C@H]1n1cc(Cl)c2cnc(-c3c[nH]c4ncc(F)cc34)nc21 [Compound B82] | 10 to 100
46 | C[C@@]1(C(=O)O)CCCC[C@@H]1n1cc(Cl)c2cnc(-c3c[nH]c4ncc(F)cc34)nc21 [Compound B83] | 1 to 10
47 | CC(C)(C)C(C(=O)O)n1ccc2cnc(-c3c[nH]c4ncc(F)cc34)nc21 (stereo not drawn) [Compound B84] | 1 to 10
48 | CNC(=O)N1CCCCC1Cn1cc(F)c2cnc(-c3c[nH]c4ncc(F)cc34)nc21 (stereo not drawn) [Compound B85] | 1 to 10

Row | Compound | IC50 [µM]
49 | CN(C)C(=O)N1CCCCC1Cn1cc(F)c2cnc(-c3c[nH]c4ncc(F)cc34)nc21 (stereo not drawn) [Compound B86] | 1 to 10
50 | O=C(O)[C@@H]1CCCC[C@H]1n1cc(F)c2cnc(-c3c[nH]c4ncc(Cl)cc34)nc21 [Compound B87] | < 1
51 | CCOC(=O)[C@]1(C)CCCC[C@H]1n1cc(F)c2cnc(-c3c[nH]c4ncc(Cl)cc34)nc21 [Compound B88] | > 100
52 | C[C@@]1(C(=O)O)CCCC[C@H]1n1cc(F)c2cnc(-c3c[nH]c4ncc(F)cc34)nc21 [Compound B89] | < 1
53 | CCOC(=O)[C@]1(C)CCCC[C@H]1n1cc(F)c2cnc(-c3c[nH]c4ncc(F)cc34)nc21 [Compound B90] | > 100
54 | C[C@@]1(C(=O)O)CCCC[C@H]1n1cc(F)c2cnc(-c3c[nH]c4ncc(Cl)cc34)nc21 [Compound B91] | < 1
55 | CNC(=O)[C@]1(C)CCCC[C@H]1n1cc(F)c2cnc(-c3c[nH]c4ncc(Cl)cc34)nc21 [Compound B92] | 10 to 100
56 | CNC(=O)[C@@H]1CCCCC1n1cc(F)c2cnc(-c3c[nH]c4ncc(Cl)cc34)nc21 (stereo partly drawn) [Compound B94] | 10 to 100
57 | O=C(N[C@H]1CCC[C@@H](n2cc(F)c3cnc(-c4c[nH]c5ncc(Cl)cc45)nc32)C1)c1ccccn1 [Compound B96] | > 100
58 | CCC(C)(C(=O)NCC(F)(F)F)n1ccc2cnc(-c3c[nH]c4ncccc34)nc21 (stereo not drawn) [Compound B97] | > 100
59 | CCOC(=O)C1=CCCCC1n1cc(F)c2cnc(-c3c[nH]c4ncc(Cl)cc34)nc21 (stereo not drawn) [Compound B98] | > 100
60 | O=C(O)C1=CCCCC1n1cc(F)c2cnc(-c3c[nH]c4ncc(Cl)cc34)nc21 (stereo not drawn) [Compound B99] | < 1
61 | CCOCc1ccc(C(=O)N[C@H]2CCC[C@@H](n3cc(F)c4cnc(-c5c[nH]c6ncc(Cl)cc56)nc43)C2)nc1 [Compound B101] | > 100
62 | O=C(N[C@H]1CCC[C@@H](n2cc(F)c3cnc(-c4c[nH]c5ncc(Cl)cc45)nc32)C1)N1CCc2ccccc21 [Compound B102] | > 100
63 | O=C(O)C1=C(n2cc(F)c3cnc(-c4c[nH]c5ncc(Cl)cc45)nc32)CCCC1 [Compound B103] | < 1
64 | O=C(O)[C@H]1C2CCC(CC2)C1n1ccc2cnc(-c3c[nH]c4ncc(F)cc34)nc21 (stereo partly drawn) [Compound B120] | < 1
65 | CCOC(=O)[C@H]1C2CCC(CC2)[C@@H]1n1ccc2cnc(-c3c[nH]c4ncc(F)cc34)nc21 [Compound B121] | 10 to 100
66 | O=C(O)[C@H]1C2CCC(CC2)C1n1ccc2cnc(-c3c[nH]c4ncc(F)cc34)nc21 (stereo partly drawn) [Compound B122] | 1 to 10
67 | O=C(O)[C@H]1C2CCC(CC2)[C@@H]1n1ccc2cnc(-c3c[nH]c4ncc(F)cc34)nc21 [Compound B123] | 1 to 10
68 | O=C(O)[C@H]1C2CCC(CC2)[C@@H]1n1ccc2cnc(-c3c[nH]c4ncc(Cl)cc34)nc21 [Compound B124] | 1 to 10
69 | CCOC(=O)[C@H]1C2CCC(CC2)[C@@H]1n1cc(Cl)c2cnc(-c3cn(S(=O)(=O)c4ccc(C)cc4)c4ncc(F)cc34)nc21 [Compound B125] | > 100
70 | CCOC(=O)[C@H]1C2CCC(CC2)[C@@H]1n1cc(Cl)c2cnc(-c3c[nH]c4ncc(F)cc34)nc21 [Compound B126] | > 100
71 | O=C(O)[C@H]1C2CCC(CC2)[C@@H]1n1cc(Cl)c2cnc(-c3c[nH]c4ncc(F)cc34)nc21 [Compound B127] | < 1
72 | CCOC(=O)[C@H]1C2CCC(CC2)[C@@H]1n1ccc2cnc(-c3c[nH]c4ncc(Cl)cc34)nc21 [Compound B128] | 10 to 100
